Assay results reported in patent US8871767B2, “2-arylimidazo[1,2-B]pyridazine, 2-phenylimidazo[1,2-A]pyridine, and 2-phenylimidazo[1,2-A]pyrazine derivatives” (Hengrui (USA) Ltd., priority 2010, dated 2014).
Where two headings read alike, the source gives them in different places.

Key:
[1] = test system: Hedgehog pathway activation on 10T1/2/Smo#3 cells (C3H10T1/2 cells transfected with human Smoothened receptor); experiment: Hedgehog pathway activation on 10T1/2/Smo#3 cells measured by ALP activity; type: cell-based; conditions: Mus musculus, C3H 10T1/2, 10T1/2/Smo#3 cells
How it was run: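 Inhibition of alkaline phosphatase induction, read fluorometrically from 4-methylumbelliferyl phosphate conversion, gave IC50 values; CellTiter-Blue tracked viability in parallel. Cells were the human Smo-transfected 10T1/2/Smo#3 pool, stimulated by 10-20% hShh conditioned medium or the Smo agonist SAG (500 nM).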

[2] = test system: Hedgehog pathway activation (GLi-luciferase reporter) in Shh Light II reporter cells; experiment: Hedgehog pathway activation on Shh Light II reporter cells measured by luciferase activity; type: cell-based; conditions: Mus musculus, Shh Light II
How it was run: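 Shh Light II reporter cells carrying a hedgehog-responsive GLi-luciferase reporter were stimulated either with 500 nM SAG, a direct Smoothened agonist, or with conditioned media containing human Sonic Hedgehog (hShh). Test compounds were evaluated for blocking this pathway activation, quantified by luciferase activity. Cell viability was monitored in parallel with the Celltiter-Blue® assay.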

[3] = measured by ALP activity, read-out: ALP (IC50, inhibition of Hedgehog pathway activation)
[4] = hShh activation, read-out: Shh (IC50, inhibition of Hedgehog pathway activation)
[5] = hShh activation, ALP activity, read-out: 10T1/2/Smo#3 ALP activity (hShh Activation)
[6] = SAG activation (500 nM SAG), read-out: Shh Light II luciferase activity (SAG activation)
[7] = hShh activation, read-out: Shh Light II luciferase activity (hShh activation)

Compound | IC50 [1, 3] | IC50 [2, 4] | IC50 [1, 5] | IC50 [2, 6] | IC50 [2, 7]
CCOC(=O)CCCOc1ccc(-c2ccc3nc(-c4ccc(C)c(NC(=O)C(C)(C)C)c4)cn3n2)c(C(F)(F)F)n1 [Example 432, ethyl 4-(5-(2-(4-methyl-3-pivalamidophenyl)imidazo[1,2-b]pyridazin-6-yl)-6-(trifluoromethyl)pyridin-2-yloxy)butanoate] | 675 nM | 121 nM |  |  | 
Cc1ccc(-c2cn3nc(-c4cccc(O)c4)ccc3n2)cc1NC(=O)C(C)(C)C [Example 264, N-(5-(6-(3-hydroxyphenyl)imidazo[1,2-b]pyridazin-2-yl)-2-methylphenyl)pivalamide] | 544 nM | 2010 nM |  |  | 
O=C(Nc1cc(-c2cn3nc(-c4cccnc4C(F)(F)F)ccc3n2)ccc1Cl)N1CC(F)(F)C1 [Example 669, N-(2-chloro-5-(6-(2-(trifluoromethyl)pyridin-3-yl)imidazo[1,2-b]pyridazin-2-yl)phenyl)-3,3-difluoroazetidine-1-carboxamide] | 125 nM | 28 nM | < 300 nM | < 300 nM | < 300 nM
CC1CCCCN1c1ccc2nc(-c3ccc(C(F)(F)F)c(NC(=O)C(C)(C)C)c3)cn2n1 (centres unmarked) [Example 294, N-(5-(6-(2-methylpiperidin-1-yl)imidazo[1,2-b]pyridazin-2-yl)-2-(trifluoromethyl)phenyl)pivalamide] | 254 nM | 256 nM |  |  | 
COCCNC1CCN(c2ccc3nc(-c4ccc(C(F)(F)F)c(NC(=O)C(C)(C)C)c4)cn3n2)CC1 [Example 368, N-(5-(6-(4-(2-methoxyethylamino)piperidin-1-yl)imidazo[1,2-b]pyridazin-2-yl)-2-(trifluoromethyl)phenyl)pivalamide] | 321 nM | 118 nM |  |  | 
CC(C)(C)C(=O)Nc1cc(-c2cn3nc(-c4cc(Cl)ccc4F)ccc3n2)ccc1C(F)(F)F [Example 227, N-(5-(6-(5-chloro-2-fluorophenyl)imidazo[1,2-b]pyridazin-2-yl)-2-(trifluoromethyl)phenyl)pivalamide] | 141 nM | 65 nM |  |  | 
COc1cccc(-c2ccc3nc(-c4ccc(C(F)(F)F)c(NC(=O)C(C)(C)C)c4)cn3n2)c1F [Example 206, N-(5-(6-(2-fluoro-3-methoxyphenyl)imidazo[1,2-b]pyridazin-2-yl)-2-(trifluoromethyl)phenyl)pivalamide] | 246 nM | 341 nM |  |  | 
CCCCS(=O)(=O)c1ccc2nc(-c3ccc(C)c(NC(=O)C(C)(C)C)c3)cn2n1 [Example 130, N-(5-(6-(butylsulfonyl)imidazo[1,2-b]pyridazin-2-yl)-2-methylphenyl)pivalamide] | 526 nM | 898 nM | 300 to 3000 nM | < 300 nM | 300 to 3000 nM
Cc1ccc(-c2cn3nc(-c4c(F)cccc4C(F)(F)F)ccc3n2)cc1NC(=O)C(C)(C)C [Example 397, N-(5-(6-(2-fluoro-6-(trifluoromethyl)phenyl)imidazo[1,2-b]pyridazin-2-yl)-2-methylphenyl)pivalamide] | 315 nM | 73 nM | < 300 nM | < 300 nM | < 300 nM
CC(C)(C)C(=O)Nc1cc(-c2cn3nc(-c4ccccc4OC(F)(F)F)ccc3n2)ccc1C(F)(F)F [Example 240, N-(5-(6-(2-(trifluoromethoxy)phenyl)imidazo[1,2-b]pyridazin-2-yl)-2-(trifluoromethyl)phenyl)pivalamide] | 70 nM | 326 nM |  |  | 
COc1ccc2nc(-c3ccc(Cl)c(NC(=O)C(C)(C)C(F)(F)F)c3)cn2n1 [Example 119, N-(2-chloro-5-(6-methoxyimidazo[1,2-b]pyridazin-2-yl)phenyl)-3,3,3-trifluoro-2,2-dimethylpropanamide] | 4540 nM | 5650 nM | 3000 to 30000 nM | 3000 to 30000 nM | 3000 to 30000 nM
Cc1ccc(-c2ccc3nc(-c4ccc(C(F)(F)F)c(NC(=O)C(C)(C)C)c4)cn3n2)c(F)c1 [Example 205, N-(5-(6-(2-fluoro-4-methylphenyl)imidazo[1,2-b]pyridazin-2-yl)-2-(trifluoromethyl)phenyl)pivalamide] | 196 nM | 279 nM |  |  | 
CC(C)(C)C(=O)Nc1cc(-c2cn3nc(N4CCC[C@H](O)C4)ccc3n2)ccc1C(F)(F)F [Example 358, (S)-N-(5-(6-(3-hydroxypiperidin-1-yl)imidazo[1,2-b]pyridazin-2-yl)-2-(trifluoromethyl)phenyl)pivalamide] | 387 nM | 225 nM |  |  | 
CC1(C(=O)Nc2cc(-c3cn4nc(-c5cccnc5C(F)(F)F)ccc4n3)ccc2Cl)CC1 [Example 653, N-(2-chloro-5-(6-(2-(trifluoromethyl)pyridin-3-yl)imidazo[1,2-b]pyridazin-2-yl)phenyl)-1-methylcyclopropanecarboxamide] | 80 nM | 10 nM |  |  | 
CC(C)(C)C(=O)Nc1cc(-c2cn3nc(OCCN4CCOCC4)ccc3n2)ccc1C(F)(F)F [Example 306, N-(5-(6-(2-morpholinoethoxy)imidazo[1,2-b]pyridazin-2-yl)-2-(trifluoromethyl)phenyl)pivalamide] | 446 nM | 402 nM |  |  | 
CC(C)(C)C(=O)Nc1cc(-c2cn3nc(N4CCC[C@@H](O)C4)ccc3n2)ccc1C(F)(F)F [Example 357, (R)-N-(5-(6-(3-hydroxypiperidin-1-yl)imidazo[1,2-b]pyridazin-2-yl)-2-(trifluoromethyl)phenyl)pivalamide] | 445 nM | 151 nM |  |  | 
Cc1ccc(-c2cn3nc(-c4ccc(C#N)cc4C(F)(F)F)ccc3n2)cc1NC(=O)C(C)(C)C [Example 478, N-(5-(6-(4-cyano-2-(trifluoromethyl)phenyl)imidazo[1,2-b]pyridazin-2-yl)-2-methylphenyl)pivalamide] | 327 nM | 80 nM |  |  | 
CSCCNc1ccc2nc(-c3ccc(C(F)(F)F)c(NC(=O)C(C)(C)C)c3)cn2n1 [Example 300, N-(5-(6-(2-(methylthio)ethylamino)imidazo[1,2-b]pyridazin-2-yl)-2-(trifluoromethyl)phenyl)pivalamide] | 703 nM | 535 nM | 300 to 3000 nM | < 300 nM | 300 to 3000 nM
CCN(CC)S(=O)(=O)c1cc(-c2cn3nc(-c4cccnc4C(F)(F)F)ccc3n2)ccc1Cl [Example 703, 2-chloro-N,N-diethyl-5-(6-(2-(trifluoromethyl)pyridin-3-yl)imidazo[1,2-b]pyridazin-2-yl)benzenesulfonamide] | > 10000 nM | 1600 nM |  |  | 
CC(C)(C)C(=O)Nc1cc(-c2cn3nc(-c4cccc(F)c4)ccc3n2)ccc1C(F)(F)F [Example 222, N-(5-(6-(3-fluorophenyl)imidazo[1,2-b]pyridazin-2-yl)-2-(trifluoromethyl)phenyl)pivalamide] | 425 nM | 156 nM |  |  | 
CCC(C)(C)C(=O)Nc1cc(-c2cn3nc(-c4cccnc4C(F)(F)F)ccc3n2)ccc1Cl [Example 664, N-(2-chloro-5-(6-(2-(trifluoromethyl)pyridin-3-yl)imidazo[1,2-b]pyridazin-2-yl)phenyl)-2,2-dimethylbutanamide] | 105 nM | 24 nM |  |  | 
CC(C)(C(=O)Nc1cc(-c2cn3nc(-c4cccnc4C(F)(F)F)ccc3n2)c(F)cc1Cl)C(F)(F)F [Example 660, N-(2-chloro-4-fluoro-5-(6-(2-(trifluoromethyl)pyridin-3-yl)imidazo[1,2-b]pyridazin-2-yl)phenyl)-3,3,3-trifluoro-2,2-dimethylpropanamide] | 17 nM | 32 nM |  |  | 
